Two compounds from US20260001875A1, “AMINOPYRIMIDINYL DERIVATIVES FOR THE TREATMENT OF PARKINSON'S DISEASE” (UNIVERSITY OF DUNDEE, priority 2022, published 2026) can be followed below.

Entries after “also recorded” stand apart in the source; their conditions may differ.

One test has as its system Rab10 pThr73. As to the kind of experiment: Rab10 Thr73 dephosphorylation in PBMC. The class given is cell-based, human. As to conditions: for EC50: Homo sapiens, PBMC. On the procedure:
(§1) PBMC cells were separated from human blood following existing protocol (dx.doi.org/10.17504/protocols.io.bnhxmb7n) and pelleted by centrifugation at 1000 g for 2 min. The supernatant was discarded and the PBMC pellet was resuspended in PBS containing 2% FBS for washing. The suspension was centrifuged at 1000 g for 2 min again and the PBMC pellet was resuspended in RPMI-1640 (Gibco) media supplemented with 10% FBS. The cells were then seeded into 6-well plates and treated with testing compounds at indicated concentrations and time period. After treatment, the cells were collected into 2-ml Eppendorf tube and centrifuged at 500 g for 2 min to pellet the cells, the supernatant was discarded, and the pellet was resuspended in 1 ml PBS and centrifuged at 500 g for 2 min again. The PBMC pellet was lysed with 60 μL of lysis buffer containing 50 mM Tris-HCl, pH 7.5, 1% (v/v) Triton X-100, 1 mM EGTA, 1 mM sodium orthovanadate, 50 mM NaF, 0.1% (v/v) 2-mercaptoethanol, 10 mM 2-glycerophosphate, 5 mM sodium pyrophosphate, 0.1 μg/ml mycrocystin-LR (Enzo Life Sciences), 270 mM sucrose, 0.5 mM DIFP (Sigma, Cat #D0879) in addition to Complete EDTA-free protease inhibitor cocktail (Sigma-Aldrich Cat #11836170001). DIFP is highly toxic and must be prepared in a fume hood to a stock solution of 0.5 M in isopropanol. The lysed cells were then centrifuged at 1500 g for 15 min at 0° C. The supernatants were collected for analysis by quantitative immunoblotting. For long term storage, the supernatant was flash frozen and stored at −80° C. Protein concentrations of cell lysates were determined using Pierce™ BCA Protein Assay Kit (ThermoFisher).
(§2) Cell lysates containing a quarter of a volume of 4× NuPAGE LDS sample buffer (NP0007) supplemented with 5% β-mercaptoethanol, were heated at 95° C. for 5 minutes. 15 to 20 μg of samples were loaded onto pre-cast 4-12% Bis-Tris midi 20W or 26W gels (Thermofisher Scientific®, Cat #WG1402BOX or WG1403BOX) and resolved at 130 V for 2 hours with NuPAGE MOPS SDS running buffer (Thermofisher Scientific® Cat #NP0001-02). Proteins were electrophoretically transferred onto a 0.45 μm nitrocellulose membrane (GE Healthcare, Amersham Protran® Supported 0.45 mm NC) at 90 V for 90 min on ice in transfer buffer (48 mM Tris base and 39 mM glycine supplemented with 20% methanol). The transferred membrane was blocked with 5% (w/v) skim milk powder dissolved in tris-buffered saline with tween (TBS-T) (50 mM Tris base, 150 mM sodium chloride (NaCl), 0.1% (v/v) Tween-20) at room temperature for 1 hour. Membranes were washed three times with TBS-T and were incubated in primary antibody overnight at 4° C. Prior to secondary antibody incubation, membranes were washed three times for 15 minutes with TBS-T. The membranes were incubated with secondary antibody for 1 hour at room temperature, protected from light. Thereafter, the membranes were washed with TBS-T three times with a 15-minute incubation for each wash, and protein bands were acquired via near-infrared fluorescent detection using the Odyssey CLx imaging system and quantified using Image Studio software. Graphs were generated using Graphpad Prism version 8 software.
Monoclonal rabbit LRRK2 Ser935 (Cat #UDD2) was purified by MRC PPU Reagents and Services at the University of Dundee and was used at a final concentration of 1 μg/ml. Total LRRK2 (C-terminus) was from Antibodies Inc./Neuromab (Cat #75-253) and was diluted 1:1000. […]

For the next test, the target named is LRRK2 (Homo sapiens, UniProt Q5S007). As to the kind of experiment: LRRK2 degradation in PBMC. The format is cell-based. The arrangement: endogenous in cells; host or cells: human peripheral blood mononuclear cells (PBMC). On the procedure:
as §1, §2
Monoclonal rabbit LRRK2 Ser935 (Cat #UDD2) was purified by MRC PPU Reagents and Services at the University of Dundee and was used at a final concentration of 1 μg/ml. Total LRRK2 (C-terminus) was from Antibodies Inc./Neuromab (Cat #75-253) and was diluted 1:1000. The MJFF monoclonal rabbit Rab10 pThr73, which was characterized previously (Lis et al., Biochem J. 2018 Jan. 2; 475(1):1-22.) was purchased from Abcam Inc. (ab230261) and diluted 1:1000. Mouse monoclonal alpha-tubulin (#3873) was purchased from Cell Signaling Technology and used at 1:1000. The mouse monoclonal anti-Rab10 total antibody was purchased from Nanotools (#0680-100/Rab10-605B11) and was used at a final concentration of 1 μg/ml. Mouse monoclonal Hif-1α was purchased from R&D Systems (Cat #MAB1536) and was diluted 1:1000.

LRRK2, sequence (Q5S007 whole entry): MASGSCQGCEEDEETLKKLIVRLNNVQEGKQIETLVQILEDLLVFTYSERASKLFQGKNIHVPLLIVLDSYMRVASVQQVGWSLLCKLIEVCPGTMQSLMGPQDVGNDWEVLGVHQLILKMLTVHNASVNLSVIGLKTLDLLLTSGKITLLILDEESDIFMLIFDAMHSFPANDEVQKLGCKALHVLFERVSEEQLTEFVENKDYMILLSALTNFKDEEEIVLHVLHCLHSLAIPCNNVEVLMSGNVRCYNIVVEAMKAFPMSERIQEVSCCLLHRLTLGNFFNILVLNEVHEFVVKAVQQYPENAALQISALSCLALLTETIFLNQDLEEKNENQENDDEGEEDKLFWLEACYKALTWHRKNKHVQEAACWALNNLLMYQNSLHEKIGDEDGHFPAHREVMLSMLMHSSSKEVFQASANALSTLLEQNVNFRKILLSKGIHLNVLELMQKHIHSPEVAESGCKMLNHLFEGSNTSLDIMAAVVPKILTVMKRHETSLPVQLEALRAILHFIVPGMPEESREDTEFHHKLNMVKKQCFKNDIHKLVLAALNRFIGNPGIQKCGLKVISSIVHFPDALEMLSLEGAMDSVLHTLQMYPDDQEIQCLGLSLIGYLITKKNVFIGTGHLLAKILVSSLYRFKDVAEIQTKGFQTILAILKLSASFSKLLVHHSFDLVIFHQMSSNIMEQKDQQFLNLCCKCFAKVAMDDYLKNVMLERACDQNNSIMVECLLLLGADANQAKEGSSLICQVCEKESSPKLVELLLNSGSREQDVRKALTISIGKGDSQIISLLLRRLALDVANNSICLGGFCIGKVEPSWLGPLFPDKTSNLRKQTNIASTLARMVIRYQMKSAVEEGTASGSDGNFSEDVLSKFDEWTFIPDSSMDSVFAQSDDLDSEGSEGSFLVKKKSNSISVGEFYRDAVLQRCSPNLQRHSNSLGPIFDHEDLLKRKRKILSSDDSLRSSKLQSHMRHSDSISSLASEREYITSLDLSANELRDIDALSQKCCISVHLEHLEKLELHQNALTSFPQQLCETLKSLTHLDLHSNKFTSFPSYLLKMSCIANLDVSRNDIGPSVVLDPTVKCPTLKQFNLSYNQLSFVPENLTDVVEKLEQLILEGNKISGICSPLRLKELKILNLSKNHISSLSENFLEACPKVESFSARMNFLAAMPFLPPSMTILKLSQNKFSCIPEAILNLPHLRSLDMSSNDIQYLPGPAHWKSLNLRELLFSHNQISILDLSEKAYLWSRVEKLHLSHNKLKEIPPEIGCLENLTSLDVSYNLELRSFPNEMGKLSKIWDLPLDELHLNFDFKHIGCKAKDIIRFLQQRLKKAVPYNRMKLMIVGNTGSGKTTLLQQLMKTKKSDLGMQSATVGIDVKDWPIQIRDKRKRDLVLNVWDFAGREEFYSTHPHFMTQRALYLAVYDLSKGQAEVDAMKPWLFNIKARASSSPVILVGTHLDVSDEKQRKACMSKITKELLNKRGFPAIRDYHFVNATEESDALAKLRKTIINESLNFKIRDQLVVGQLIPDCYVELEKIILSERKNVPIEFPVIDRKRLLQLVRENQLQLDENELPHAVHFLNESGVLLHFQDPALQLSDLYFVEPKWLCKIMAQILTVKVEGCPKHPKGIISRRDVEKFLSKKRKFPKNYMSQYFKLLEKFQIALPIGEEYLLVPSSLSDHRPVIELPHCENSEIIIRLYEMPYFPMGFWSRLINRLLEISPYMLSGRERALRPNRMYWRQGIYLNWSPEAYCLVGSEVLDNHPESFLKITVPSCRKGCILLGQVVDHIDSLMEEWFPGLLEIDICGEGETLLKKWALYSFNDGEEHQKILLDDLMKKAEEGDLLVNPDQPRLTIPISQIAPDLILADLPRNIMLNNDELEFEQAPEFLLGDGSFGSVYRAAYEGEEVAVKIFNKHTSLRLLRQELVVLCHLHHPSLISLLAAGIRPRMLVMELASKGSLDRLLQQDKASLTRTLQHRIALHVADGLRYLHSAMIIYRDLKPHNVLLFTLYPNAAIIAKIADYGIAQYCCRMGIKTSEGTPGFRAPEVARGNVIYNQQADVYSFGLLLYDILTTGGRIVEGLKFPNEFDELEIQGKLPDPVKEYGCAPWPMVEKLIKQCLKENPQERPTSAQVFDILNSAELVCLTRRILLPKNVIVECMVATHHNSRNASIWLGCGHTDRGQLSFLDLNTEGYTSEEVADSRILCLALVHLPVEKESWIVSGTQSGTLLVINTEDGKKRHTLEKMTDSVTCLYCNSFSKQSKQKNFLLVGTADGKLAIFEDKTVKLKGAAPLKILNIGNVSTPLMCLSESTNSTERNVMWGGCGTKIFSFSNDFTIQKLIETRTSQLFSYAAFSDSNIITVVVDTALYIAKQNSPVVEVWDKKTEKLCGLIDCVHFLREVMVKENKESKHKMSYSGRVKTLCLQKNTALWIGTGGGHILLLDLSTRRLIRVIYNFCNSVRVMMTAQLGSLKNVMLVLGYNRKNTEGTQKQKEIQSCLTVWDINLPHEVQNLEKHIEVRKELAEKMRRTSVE

With `CNc1nc(Nc2ccc(C(=O)N3CCN(C[C@H]4CC[C@H](CSC(C)(C)[C@H](NC(=O)C5(F)CC5)C(=O)N5C[C@@H](O)CC5C(=O)NCc5ccc(-c6scnc6C)cc5)CC4)CC3)cc2OC)ncc1Cl` (stereo partly drawn) [Cis-XL01126, (2S,4S)-1-((R)-3-((((1r,4R)-4-((4-(4-((5-chloro-4-(methylamino)pyrimidin-2-yl)amino)-3-methoxybenzoyl)piperazin-1-yl)methyl)cyclohexyl)methyl)thio)-2-(1-fluorocyclopropane-1-carboxamido)-3-methylbutanoyl)-4-hydroxy-N-(4-(4-methylthiazol-5-yl)benzyl)pyrrolidine-2-carboxamide], the EC50 in the test with Rab10 pThr73 (4 h treatment) was > 3 µM; in the test on Rab10 pThr73 (24 h treatment), 0.705 µM. Besides, the “LRRK2 Ser935 and Rab10 Thr73 dephosphorylation in PBMC (in words)” value with Rab10 pThr73 (time course at 300 nM) is “barely inhibits the phosphorylation; also recorded: induced little LRRK2 and Rab10 dephosphorylation”. Moreover, the results for the “LRRK2 degradation in PBMC (in words)” value on LRRK2 (4 h treatment), at LRRK2 (24 h treatment) and on LRRK2 (time course at 300 nM) were “cannot degrade LRRK2”, “degraded little LRRK2; also recorded: cannot degrade LRRK2” and “cannot degrade LRRK2”, respectively.

On to `CNc1nc(Nc2ccc(C(=O)N3CCN(C[C@H]4CC[C@H](CSC(C)(C)[C@H](NC(=O)C5(F)CC5)C(=O)N5C[C@H](O)CC5C(=O)NCc5ccc(-c6scnc6C)cc5)CC4)CC3)cc2OC)ncc1Cl` (stereo partly drawn) [XL01126, (2S,4R)-1-((R)-3-((((1R,4R)-4-((4-(4-((5-chloro-4-(methylamino)pyrimidin-2-yl)amino)-3-methoxybenzoyl)piperazin-1-yl)methyl)cyclohexyl)methyl)thio)-2-(1-fluorocyclopropane-1-carboxamido)-3-methylbutanoyl)-4-hydroxy-N-(4-(4-methylthiazol-5-yl)benzyl)pyrrolidine-2-carboxamide], for which, in the test with Rab10 pThr73 (24 h treatment), the EC50 came out at 0.02 µM. Moreover, the “T1/2 of Rab10 dephosphorylation in PBMC” value with Rab10 pThr73 (time course at 300 nM) amounted to 0.38 h. At LRRK2 (4 h treatment), this compound came in with a DC50 of 0.072 µM. On LRRK2 (24 h treatment), the DC50 was found to be 0.017 µM and the “Dmax of LRRK2 degradation in PBMC” value is listed as 80-90%. The “T1/2 of LRRK2 degradation in PBMC” value on LRRK2 (time course at 300 nM) is 2.4 h.

Usually EC50 stands for the concentration needed to bring the measured effect to its halfway point. Usually DC50 stands for the midpoint of the concentration-degradation curve.
